The conditions of data set [1]: cited from earlier work.
The test system of data set [2] is porcine (Sus scrofa) liver CES (SsCES). The data set can be described thus: Inhibition of SsCES (spectrophotometric, 4-NPA substrate). The format is biochemical. As to conditions: compound 20 μM; n.a. = not active; mean ± SEM, n = 3. From the text: (§1) In these experiments, human (Homo sapiens) erythrocyte AChE (HsAChE), equine (Equus caballus) serum BChE (EcBChE), and porcine (Sus scrofa) liver CES (SsCES) were used because of their ready availability, relatively low cost, and high sequence homology of EcBChE and SsCES to the corresponding human enzymes.
Although the dominant carboxylesterase in porcine liver is CES1 [64], the preparation sourced from Sigma-Aldrich is not a purified or recombinant CES1. Therefore, we have designated the preparation used in our experimental studies as SsCES. However, in computational molecular docking studies, it is necessary to choose a single defined protein as the docking target. Thus, the logical choice for our computational studies of CES was the most abundant and best characterized isoform found in porcine liver, which is SsCES1.
(§2) Enzymes, substrates, and reference compounds were sourced from Sigma-Aldrich (St. Louis, MO, USA). Enzyme activity was measured spectrophotometrically according to [91] using ATCh iodide, BTCh iodide, and 4-NPA as substrates for HsAChE, EcBChE, and SsCES, respectively. Experimental conditions included a K/Na-phosphate buffer (100 mM), at 25 °C, with pH 7.5 for AChE and BChE assays, and pH 8.0 for CES assays. Measurements were conducted on a BioRad Benchmark Plus microplate spectrophotometer (Hercules, CA, USA). Test compounds were dissolved in DMSO with a final solvent concentration of 2% (v/v) in the incubation mixture.

Another data set addresses T1, HsAChE (Homo sapiens, UniProt P22303).
T1 construct: human (Homo sapiens) erythrocyte AChE (HsAChE); purchased Sigma-Aldrich; host or cells: human erythrocytes
Put plainly: Kinetic study of HsAChE inhibition (Lineweaver-Burk). The format is biochemical. The protocol: (§3) . To determine the relationship between enzyme activity and inhibitor concentration at different substrate levels, we conducted kinetic assays. The kinetic data analysis, using Lineweaver–Burk plots, is shown in Figure 2A and Figure 2B for HsAChE and EcBChE, respectively.
(§4) To investigate the mechanisms of HsAChE and EcBChE inhibition, enzyme kinetics were analyzed (detailed in [92]). After a 5 min equilibration at 25 °C with three different inhibitor concentrations and six substrate concentrations, residual enzyme activity was measured as described. Lineweaver–Burk plots (1/V vs. 1/[S]) were used to determine competitive (Ki) and non-competitive (αKi) inhibition constants.

A further data set has as its target T2, EcBChE (Equus caballus, UniProt P81908).
T2 construct: equine (Equus caballus) serum BChE (EcBChE); purchased Sigma-Aldrich; host or cells: horse serum
The data set can be described thus: Kinetic study of EcBChE inhibition (Lineweaver-Burk). The data set is classed as biochemical. The protocol: as §3, §4

Data set [3] in a line: Ferric reducing antioxidant power (FRAP) assay. As to conditions: Trolox equivalents; acetate buffer pH 3.6, 1 h, 37 °C.
Data set [4] deals with reprogrammed human neuronal cell cultures (MSC-Neu). The data set can be described thus: Cytotoxicity, MTT test, MSC-Neu. As to conditions: read-out: Cytotoxic activity, LC50, MSC-Neu, 24 h, 1 to 1024 μM, mean ± SE, n = 3. The protocol:
(§5) Cytotoxic activity was assessed using the MTT test. […] For each compound, the half-lethal concentration parameter LC50 (μM) was calculated.
(§6) This study employed SH-SY5Y neuroblastoma cells and dental pulp-derived mesenchymal stem cells (MSC-DP). Cells were cultured in DMEM/F12 with 10% (v/v) FBS under standard conditions. MSC-DP were reprogrammed into neuronal-like cells (MSC-Neu) using Neurobasal medium with addition of Neuromax and 3% (v/v) FBS for 5 days.
(§7) The cytotoxic effect of Fcs was assessed using the Mossman test for cellular dehydrogenase activity (MTT test). […] For each compound, the half-lethal concentration parameter (LC50) in μM was calculated as described previously.
A general note: Formazan colour is commonly taken as a measure of viable cells.

In data set [5] the target is T3, human β-amyloid (1–42) (HsAβ42) (Homo sapiens, UniProt P05067).
T3 construct: purchased AnaSpec Inc
The data set can be described thus: Inhibition of HsAβ42 self-aggregation (thioflavin T fluorescence). The data set is classed as biochemical. As to conditions: HsAβ42 50 µM, compound 100 µM, 24 h, 37 °C; n.a. = not active. The protocol: The potential of compounds from all three groups (1a-e, 5a-e, 7a-d) to inhibit HsAβ42 self-aggregation was evaluated using a Thioflavin T (ThT) fluorescence assay.
Inhibition of HsAβ42 self-aggregation by test compounds was studied using the thioflavin T (ThT) fluorescence method with minor modifications as described in detail in [79]. Lyophilized HFIP-pretreated HsAβ42 (AnaSpec Inc., Fremont, CA, USA, 0.5 mg) was dissolved in DMSO to obtain a stable 500 μM solution. The samples of 50 μM HsAβ42 in 215 mM Na-phosphate buffer pH 8.0 were incubated for 24 h at 37 °C in the absence or presence of 100 μM test compounds. Myricetin in the same concentration was used as a reference. After incubation, 5 μM ThT in 50 mM glycine-NaOH buffer pH 8.5 was added, and the fluorescence was measured at 440 nm (exc.) and 485 nm (emis.) with a FLUOStar Optima microplate reader. Blanks consisted of 215 mM Na-phosphate buffer, pH 8.0, 20% (v/v) DMSO or test compounds, respectively. The inhibition (%) of HsAβ42 self-aggregation by the test compounds was calculated.

Data set [6] addresses T4, equine (Equus caballus) serum BChE (EcBChE) (Equus caballus, UniProt P81908).
T4 construct: equine (Equus caballus) serum BChE (EcBChE); purchased Sigma-Aldrich; host or cells: horse serum
The data set can be described thus: Inhibition of EcBChE (spectrophotometric, BTCh iodide substrate). As to conditions: K/Na-phosphate buffer pH 7.5, 25 °C; mean ± SEM, n = 3. The data set is classed as biochemical. On the procedure: as §1, §2

Data set [7] concerns the target T5, peripheral anionic site (PAS) of Electrophorus electricus AChE (EeAChE) (Electrophorus electricus, UniProt O42275).
T5 construct: purchased Sigma-Aldrich type VI-S
The data set can be described thus: Propidium displacement from the EeAChE PAS (fluorescence). The data set is classed as binding. As to conditions: compound concentration 20 µM; EeAChE 7 μM, propidium iodide 8 μM, Tris-HCl pH 8.0; n.a. = not active. On the procedure:
A fluorescence-based assay assessed the ability of test compounds to competitively displace propidium iodide from AChE’s PAS [65, 93]. […] EeAChE (7 μM) was incubated with 20 μM test compounds in Tris-HCl buffer (pH 8.0) for 15 min, followed by addition of propidium iodide (8 μM) as described in detail in [95]. Fluorescence readings (530 nm excitation, 600 nm emission) were obtained using a FLUOStar Optima microplate reader (LabTech, Ortenberg, Germany). Displacement (%) was calculated.

The target in data set [8] is T6, human (Homo sapiens) erythrocyte AChE (HsAChE) (Homo sapiens, UniProt P22303).
T6 construct: human (Homo sapiens) erythrocyte AChE (HsAChE); purchased Sigma-Aldrich; host or cells: human erythrocytes
The data set can be described thus: Inhibition of HsAChE (spectrophotometric, ATCh iodide substrate). The format is biochemical. As to conditions: K/Na-phosphate buffer pH 7.5, 25 °C; mean ± SEM, n = 3. On the procedure: as §1, §2

In data set [9] the test system is human neuroblastoma cell cultures (SH-SY5Y). The data set can be described thus: Cytotoxicity, MTT test, SH-SY5Y. As to conditions: read-out: Cytotoxic activity, LC50, SH-SY5Y, 24 h, 1 to 1024 μM, mean ± SE, n = 3. The protocol: as §5, §6, §7
Data set [10] can be described thus: ABTS radical cation scavenging activity assay. As to conditions: ethanol, 1 h.

T1 sequence (P22303 32-617 isoform P22303-2 limits assumed): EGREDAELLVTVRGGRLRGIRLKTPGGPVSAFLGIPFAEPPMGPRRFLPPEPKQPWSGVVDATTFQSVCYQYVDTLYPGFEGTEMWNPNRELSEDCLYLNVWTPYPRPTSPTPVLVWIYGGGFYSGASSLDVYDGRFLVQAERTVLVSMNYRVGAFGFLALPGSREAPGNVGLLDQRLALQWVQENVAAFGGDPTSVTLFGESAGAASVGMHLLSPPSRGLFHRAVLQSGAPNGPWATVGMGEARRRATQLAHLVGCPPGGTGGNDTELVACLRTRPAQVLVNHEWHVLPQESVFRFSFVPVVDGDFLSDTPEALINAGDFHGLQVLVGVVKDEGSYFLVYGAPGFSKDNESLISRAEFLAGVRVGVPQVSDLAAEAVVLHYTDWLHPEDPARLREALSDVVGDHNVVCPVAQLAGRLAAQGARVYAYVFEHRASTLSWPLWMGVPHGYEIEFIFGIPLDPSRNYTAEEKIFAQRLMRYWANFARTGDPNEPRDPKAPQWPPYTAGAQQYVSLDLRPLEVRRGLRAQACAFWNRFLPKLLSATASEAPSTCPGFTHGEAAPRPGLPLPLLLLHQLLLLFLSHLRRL
T2 sequence (P81908 whole entry): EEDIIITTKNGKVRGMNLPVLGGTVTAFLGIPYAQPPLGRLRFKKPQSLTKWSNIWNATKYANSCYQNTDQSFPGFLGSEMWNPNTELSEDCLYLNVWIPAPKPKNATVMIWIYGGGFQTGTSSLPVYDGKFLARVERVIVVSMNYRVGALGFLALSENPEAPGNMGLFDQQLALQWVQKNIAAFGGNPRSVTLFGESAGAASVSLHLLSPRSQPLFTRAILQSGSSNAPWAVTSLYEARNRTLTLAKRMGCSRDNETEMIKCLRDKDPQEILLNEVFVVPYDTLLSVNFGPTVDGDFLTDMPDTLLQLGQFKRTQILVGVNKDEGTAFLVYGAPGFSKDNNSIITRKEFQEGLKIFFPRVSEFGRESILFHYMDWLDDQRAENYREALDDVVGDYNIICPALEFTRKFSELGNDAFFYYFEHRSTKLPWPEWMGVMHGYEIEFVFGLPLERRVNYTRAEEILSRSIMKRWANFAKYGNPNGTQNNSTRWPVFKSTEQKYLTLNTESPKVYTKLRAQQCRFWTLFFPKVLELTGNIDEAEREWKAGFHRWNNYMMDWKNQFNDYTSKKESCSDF
T5 sequence (O42275 24-633): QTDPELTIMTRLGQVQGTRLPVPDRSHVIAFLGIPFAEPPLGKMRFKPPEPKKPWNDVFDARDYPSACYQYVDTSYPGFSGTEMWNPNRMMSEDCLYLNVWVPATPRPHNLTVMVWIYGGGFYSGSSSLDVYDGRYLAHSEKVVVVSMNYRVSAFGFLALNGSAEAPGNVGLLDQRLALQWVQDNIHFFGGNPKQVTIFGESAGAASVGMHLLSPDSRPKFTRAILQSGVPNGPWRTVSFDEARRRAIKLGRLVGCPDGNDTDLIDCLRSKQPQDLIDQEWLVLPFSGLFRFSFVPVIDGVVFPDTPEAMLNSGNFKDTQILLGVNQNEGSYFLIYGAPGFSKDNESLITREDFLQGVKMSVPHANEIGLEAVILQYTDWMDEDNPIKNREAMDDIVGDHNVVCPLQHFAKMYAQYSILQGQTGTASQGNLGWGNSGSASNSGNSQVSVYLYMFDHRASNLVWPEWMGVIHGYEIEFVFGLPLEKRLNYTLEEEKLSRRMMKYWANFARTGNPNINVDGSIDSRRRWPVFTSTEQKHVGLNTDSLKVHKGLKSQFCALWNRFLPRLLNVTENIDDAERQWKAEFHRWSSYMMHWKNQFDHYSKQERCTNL
T3 sequence (P05067 672-713 limits assumed): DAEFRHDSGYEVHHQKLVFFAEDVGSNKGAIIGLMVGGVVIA
T6 sequence (P22303 32-617 isoform P22303-2 limits assumed): as the sequence (P22303 32-617 isoform P22303-2 limits assumed) above
T4 sequence (P81908 whole entry): as the sequence (P81908 whole entry) above

`c1ccc(-c2ccccn2)nc1` [Bipyridine]: the “Experimental pKa” value in data set [1] was 4.35.

As usually defined, the Ki is the equilibrium dissociation constant of an inhibitor or competing ligand from its target. One may read the IC50 as the concentration needed to halve the response being measured. The low end stands for greater potency in that assay, the high end for weaker potency in that assay. Consider `C=C[c-]1cccc1.[Fe+2].c1ccc2nc(-[c-]3cccc3)ccc2c1` [7b, 1-(Quinolin-2-yl)-1′-Vinylferrocene], for which the “Inhibition of SsCES, % inhibition at 20 μM” value in data set [2] came out at 29.8 ± 2.6%. For the same molecule, the “noncompetitive component of inhibition constant (αKi), HsAChE” value on HsAChE is 3.05 ± 0.18 µM. At HsAChE (Vmax and Km both change), the “type of inhibition, HsAChE” value is “mixed type of inhibition”. For the same molecule, the Ki on HsAChE (read-out: competitive component of inhibition constant (Ki), HsAChE) is 1.92 ± 0.13 µM; on EcBChE (read-out: competitive component of inhibition constant (Ki), EcBChE), 2.77 ± 0.22 µM. For the same molecule, on EcBChE, the “noncompetitive component of inhibition constant (αKi), EcBChE” value is 4.58 ± 0.27 µM. Moreover, the “type of inhibition, EcBChE” value on EcBChE (Vmax and Km both change) is given as “mixed type of inhibition”. In data set [3], the “Ferric Reducing Antioxidant Power, TE” value amounted to 2.21 ± 0.02. Besides, the CC50 amounted to 277 ± 14.8 µM in data set [4] and 287 ± 31.7 µM in [9]. In addition, the “HsAβ42 self-Aggregation Inhibition, (%)” value in [5] was determined as 89.6 ± 6.2%. Also, the results for the IC50 in data set [6], in data set [8] and in data set [10] (ABTS^•+ 100 μM) were 3.68 ± 0.29 µM, 3.32 ± 0.23 µM and 5.3 ± 0.2 µM, respectively. The “Propidium Displacement, (%)” value in data set [7] came out at 7.7 ± 0.6%. In addition, in data set [10] (Trolox equivalent antioxidant capacity, mean ± SEM, n = 3), the “ABTS^•+-Scavenging Activity, TEAC” value amounted to 4.4 ± 0.2.
